Experimental data published in ChEMBL document CHEMBL6074678, “Selectively Antagonizing the NOD1-Mediated Inflammatory Signaling Pathway Mitigates the Gastric Inflammation Induced by Helicobacter pylori Infection” (J Med Chem, 2024).
≈ marks a conversion by molar mass, not a printed value.

Tests used:
[1] = Metabolic stability in mouse liver microsomes assessed as half life at 1.25 uM preincubated for 5 mins followed by NADPH addition measured upto 120 mins by LC-MS/MS analysis; assay type: ADME, Microsome; conditions: time < 125 min
[2] = Solubility of compound in phosphate buffer at pH 7.2 to 7.4; assay type: physicochemical
[3] = target: T1, Nucleotide-binding oligomerization domain-containing protein 1 (Mus musculus, UniProt Q8BHB0); test: Antagonist activity at mouse NOD1 expressed in HEK-Blue cells assessed as decrease in SEAP secretion incubated for 3 hrs followed by C12-iE-DAP stimulation for 20 hrs by spectrophotometry; assay type: cell-based, HEK-Blue mNOD1
T1 sequence (Q8BHB0 whole entry): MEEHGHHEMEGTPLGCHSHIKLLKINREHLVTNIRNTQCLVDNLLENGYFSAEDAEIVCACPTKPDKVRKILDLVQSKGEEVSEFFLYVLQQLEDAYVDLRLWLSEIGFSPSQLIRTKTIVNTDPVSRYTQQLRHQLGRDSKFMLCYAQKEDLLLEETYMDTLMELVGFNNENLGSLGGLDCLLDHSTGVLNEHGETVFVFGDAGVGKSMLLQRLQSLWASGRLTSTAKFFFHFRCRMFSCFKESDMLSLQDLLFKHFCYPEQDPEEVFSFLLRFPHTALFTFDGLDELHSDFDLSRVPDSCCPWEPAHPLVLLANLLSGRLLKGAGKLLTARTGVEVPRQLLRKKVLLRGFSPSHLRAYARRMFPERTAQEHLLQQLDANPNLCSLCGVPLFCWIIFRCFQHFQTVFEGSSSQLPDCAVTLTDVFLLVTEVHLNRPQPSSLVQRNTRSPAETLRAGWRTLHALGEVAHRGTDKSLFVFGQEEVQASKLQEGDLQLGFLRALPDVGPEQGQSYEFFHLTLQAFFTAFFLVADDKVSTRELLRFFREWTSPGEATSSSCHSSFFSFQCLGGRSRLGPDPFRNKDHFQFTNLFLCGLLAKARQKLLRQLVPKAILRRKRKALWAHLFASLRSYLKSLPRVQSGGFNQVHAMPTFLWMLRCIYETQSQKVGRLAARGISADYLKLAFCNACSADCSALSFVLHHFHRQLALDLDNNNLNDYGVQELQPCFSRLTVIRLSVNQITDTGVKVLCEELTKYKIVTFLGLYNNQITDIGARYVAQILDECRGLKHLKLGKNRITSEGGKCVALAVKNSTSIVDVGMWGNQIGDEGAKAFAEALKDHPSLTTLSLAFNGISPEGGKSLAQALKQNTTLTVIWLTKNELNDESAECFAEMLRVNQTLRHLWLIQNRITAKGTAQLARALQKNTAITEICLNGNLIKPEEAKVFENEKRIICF

[4] = Metabolic stability in human liver microsomes assessed as intrinsic clearance at 1.25 uM preincubated for 5 mins followed by NADPH addition measured upto 120 mins by LC-MS/MS analysis; assay type: ADME, Microsome; conditions: time < 125 min, read-out: CLH
[5] = Metabolic stability in human liver microsomes assessed as half life at 1.25 uM preincubated for 5 mins followed by NADPH addition measured upto 120 mins by LC-MS/MS analysis; assay type: ADME, Microsome; conditions: time < 125 min
[6] = Metabolic stability in mouse liver microsomes assessed as intrinsic clearance at 1.25 uM preincubated for 5 mins followed by NADPH addition measured upto 120 mins by LC-MS/MS analysis; assay type: ADME, Microsome; conditions: time < 125 min, read-out: CLH
[7] = Metabolic stability in human liver microsomes assessed as hepatic clearance at 1.25 uM preincubated for 5 mins followed by NADPH addition measured upto 120 mins by LC-MS/MS analysis; assay type: ADME, Microsome; conditions: time < 125 min
[8] = Metabolic stability in mouse liver microsomes assessed as hepatic clearance at 1.25 uM preincubated for 5 mins followed by NADPH addition measured upto 120 mins by LC-MS/MS analysis; assay type: ADME, Microsome; conditions: time < 125 min
[9] = target: T2, Nucleotide-binding oligomerization domain-containing protein 1 (Mus musculus) (UniProt Q8BHB0); test: Antagonist activity at mouse NOD1 expressed in HEK-Blue cells assessed as decrease in SEAP secretion at 1 uM incubated for 3 hrs followed by C12-iE-DAP stimulation for 20 hrs by spectrophotometry relative to control; assay type: cell-based; conditions: HEK-Blue mNOD1, filed as antagonist, time 23.0 hrs
T2 sequence (whole entry): T1 sequence (Q8BHB0 whole entry)

[10] = target: Nucleotide-binding oligomerization domain-containing protein 2 (Homo sapiens, UniProt Q9HC29); test: Antagonist activity at human NOD2 expressed in HEK293 cells assessed as decrease in MDP-stimulated IL-8 release incubated for 24 hrs by fluorescence based assay; assay type: cell-based
[11] = target: T2, Nucleotide-binding oligomerization domain-containing protein 1 (Mus musculus); test: Antagonist activity at mouse NOD1 expressed in HEK-Blue cells assessed as decrease in SEAP secretion at 5 uM incubated for 3 hrs followed by C12-iE-DAP stimulation for 20 hrs by spectrophotometry relative to control; assay type: cell-based; conditions: HEK-Blue mNOD1, filed as antagonist, time 23.0 hrs
[12] = target: T3, Nucleotide-binding oligomerization domain-containing protein 1 (Homo sapiens, UniProt Q9Y239); test: Antagonist activity at human NOD1 expressed in HEK-Blue cells assessed as decrease in SEAP secretion incubated for 3 hrs followed by C12-iE-DAP stimulation for 20 hrs by spectrophotometry; assay type: cell-based, HEK-Blue hNOD1
T3 sequence (Q9Y239 whole entry): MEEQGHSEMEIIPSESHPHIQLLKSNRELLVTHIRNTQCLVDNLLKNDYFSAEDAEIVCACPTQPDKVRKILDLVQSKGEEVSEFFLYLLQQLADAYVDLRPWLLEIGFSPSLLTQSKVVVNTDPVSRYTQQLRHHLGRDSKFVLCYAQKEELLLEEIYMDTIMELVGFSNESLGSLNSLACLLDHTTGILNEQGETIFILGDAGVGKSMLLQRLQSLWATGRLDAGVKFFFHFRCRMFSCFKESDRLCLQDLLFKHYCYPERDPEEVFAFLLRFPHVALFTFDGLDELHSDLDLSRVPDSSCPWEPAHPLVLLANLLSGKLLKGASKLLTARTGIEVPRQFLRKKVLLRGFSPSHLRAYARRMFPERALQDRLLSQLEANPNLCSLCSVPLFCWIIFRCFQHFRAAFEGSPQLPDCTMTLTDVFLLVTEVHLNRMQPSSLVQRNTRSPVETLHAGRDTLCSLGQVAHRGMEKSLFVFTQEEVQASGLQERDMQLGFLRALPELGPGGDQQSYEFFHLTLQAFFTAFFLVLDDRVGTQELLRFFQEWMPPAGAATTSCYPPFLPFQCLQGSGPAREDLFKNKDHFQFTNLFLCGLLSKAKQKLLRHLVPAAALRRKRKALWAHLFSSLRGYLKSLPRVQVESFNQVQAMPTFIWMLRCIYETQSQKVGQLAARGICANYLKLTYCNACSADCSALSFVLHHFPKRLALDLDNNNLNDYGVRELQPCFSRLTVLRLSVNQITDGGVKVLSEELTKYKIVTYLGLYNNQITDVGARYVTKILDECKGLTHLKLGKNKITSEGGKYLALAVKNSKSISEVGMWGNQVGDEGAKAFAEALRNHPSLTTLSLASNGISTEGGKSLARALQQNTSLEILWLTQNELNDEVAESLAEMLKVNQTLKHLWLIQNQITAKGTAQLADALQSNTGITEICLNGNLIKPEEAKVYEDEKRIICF

Chain of Nucleotide-binding oligomerization domain-containing protein 2 (Q9HC29 whole entry, the tested form may be a part): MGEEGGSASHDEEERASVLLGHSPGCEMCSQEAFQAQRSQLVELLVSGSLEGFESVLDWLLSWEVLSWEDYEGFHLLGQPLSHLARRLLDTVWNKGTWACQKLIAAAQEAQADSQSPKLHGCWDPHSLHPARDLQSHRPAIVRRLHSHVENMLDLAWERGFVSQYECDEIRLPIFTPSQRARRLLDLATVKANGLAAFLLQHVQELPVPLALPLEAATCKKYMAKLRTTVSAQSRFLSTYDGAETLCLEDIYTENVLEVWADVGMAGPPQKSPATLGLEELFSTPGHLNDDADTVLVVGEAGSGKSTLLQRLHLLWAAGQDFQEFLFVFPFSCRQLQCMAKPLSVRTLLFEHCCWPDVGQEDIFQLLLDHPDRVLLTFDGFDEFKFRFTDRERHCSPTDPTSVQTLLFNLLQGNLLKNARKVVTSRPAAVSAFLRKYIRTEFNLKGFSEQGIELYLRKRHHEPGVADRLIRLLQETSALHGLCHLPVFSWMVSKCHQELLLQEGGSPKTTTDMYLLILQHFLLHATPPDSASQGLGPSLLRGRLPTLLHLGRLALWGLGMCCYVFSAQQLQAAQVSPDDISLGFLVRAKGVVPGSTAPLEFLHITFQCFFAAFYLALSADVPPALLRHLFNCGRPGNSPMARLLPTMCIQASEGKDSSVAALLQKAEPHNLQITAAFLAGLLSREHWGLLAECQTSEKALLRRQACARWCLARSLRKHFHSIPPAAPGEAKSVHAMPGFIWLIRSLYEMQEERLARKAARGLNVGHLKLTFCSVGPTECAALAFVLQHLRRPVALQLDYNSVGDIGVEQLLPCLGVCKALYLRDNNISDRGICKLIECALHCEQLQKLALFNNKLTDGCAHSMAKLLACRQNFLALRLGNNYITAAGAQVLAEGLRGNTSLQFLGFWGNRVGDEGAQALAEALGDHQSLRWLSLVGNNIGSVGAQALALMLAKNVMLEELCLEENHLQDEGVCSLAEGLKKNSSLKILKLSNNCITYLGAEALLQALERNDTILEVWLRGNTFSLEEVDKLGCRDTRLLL

| SMILES | half-life at 1.25 µM [1] | solubility [2] | IC50 [3] | microsomal CLint at 1.25 µM [4] | half-life at 1.25 µM [5] | microsomal CLint at 1.25 µM [6] | CLhep predicted at 1.25 µM [7] | CLhep predicted at 1.25 µM [8] | inhibition [9] | IC50 [10] | inhibition [11] | IC50 [12] |
| --- | --- | --- | --- | --- | --- | --- | --- | --- | --- | --- | --- | --- |
| O=c1c2cc(Cl)cnc2nc(Cl)n1-c1ccc(Cl)c(NS(=O)(=O)c2ccccc2F)c1 | 13.9 min |  | 187 nM | 49.4 µL/min/mg | 28 min | 99.9 µL/min/mg | 15.2 mL/min/kg | 73.2 mL/min/kg | 84.3% |  |  |  |
| O=c1c2cc(Cl)ccc2nc(C(F)(F)F)n1-c1ccc(Cl)c(NS(=O)(=O)c2ccccc2F)c1 |  |  | 5900 nM |  |  |  |  |  |  |  | 73.2% | 68 nM |
| O=c1c2cc(Cl)ncc2nc(Cl)n1-c1ccc(Cl)c(NS(=O)(=O)c2ccccc2F)c1 | 53 min |  | 118 nM | 12 µL/min/mg | 115 min | 26.2 µL/min/mg | 8.3 mL/min/kg | 48 mL/min/kg | 85.6% |  |  | 1.8 nM |

Next, values leading:

| half-life at 1.25 µM [1] | solubility [2] | IC50 [3] | microsomal CLint at 1.25 µM [4] | half-life at 1.25 µM [5] | microsomal CLint at 1.25 µM [6] | CLhep predicted at 1.25 µM [7] | CLhep predicted at 1.25 µM [8] | inhibition [9] | IC50 [10] | inhibition [11] | IC50 [12] | SMILES |
| --- | --- | --- | --- | --- | --- | --- | --- | --- | --- | --- | --- | --- |
| 20.6 min | 34.2 µg/mL (≈ 62.2 µM) | 66 nM |  |  |  |  |  |  |  |  |  | CS(=O)(=O)c1ccc2nc(Cl)n(-c3ccc(Cl)c(NS(=O)(=O)c4ccccc4C#N)c3)c(=O)c2c1 |
|  |  |  |  |  |  |  |  |  | > 50000 nM |  |  | Cc1nc2ccc(NC(=O)c3cccc(NS(=O)(=O)c4ccc(F)cc4)c3)cc2s1 |
